The IC50 is the concentration at which inhibition is half-maximal. Higher therefore signals a need for much substance.

Data set [1] can be described thus: in vitro. To be noted: human.
Data set [2] in a line: in vitro. Conditions: human. The source holds these as a separate data set.
The subject of a further data set is HPV. To be noted: after three months of treatment, confirmed by smears and biopsies; cited from earlier work.
The subject of another data set is ankle wart. In words: Topical treatment of a large ankle wart, case of a person. The class given is in vivo, human.
A further data set deals with warts. To be noted: human, in vivo; cited from earlier work.

As for `C=C1C(=O)O[C@@H]2C[C@@H](C)[C@@H]3C=CC(=O)[C@@]3(C)[C@@H](O)[C@H]12` (racemic) [H. tox, (±)-4-Hydroxy-4a,8-dimethyl-3,3a,4a,7a,8,9,9a-octahydroazuleno[6,5-b]furan-2,5-dione], the half-maximal inhibitory concentration (IC50) in “in vitro [1]” and in the data set “in vitro [2]” was about 1 µM each time.
`Cc1cccc(C)c1OCC(=O)N[C@@H](Cc1ccccc1)[C@@H](O)C[C@H](Cc1ccccc1)NC(=O)[C@H](C(C)C)N1CCCNC1=O` [Lopinavir]: the “women with high-grade disease having normal cervical conditions” value in the data set with HPV is reported as 82.6%.
On to `CC(=O)Oc1ccccc1C(=O)O` [crushed aspirin, aspirin], for which, in the data set with ankle wart (treatment stopped), the “wart after treatment was stopped” value was “regrew”. For the same compound, the wart size result with ankle wart (under a commercial band aid for several weeks) was “slightly reduced in size”.
As for `O=[N+]([O-])[O-].[Ag+]` [silver nitrate, Silver nitrate], the improvement in warts in the data set with warts is on record as 26%.
